# From US20150051186A1, “ARYL AZETIDINE DERIVATIVES AS SPHINGOSINE-1 PHOSPHATE RECEPTORS MODULATORS” (Allergan, Inc., priority 2013, published 2015)
# Target: T1, human S1P1 receptor (Homo sapiens, UniProt P21453)
# T1 construct: expressed in transfected cells; membranes were used
# Assay: GTP γ35S binding assay for S1P1 activity
# Format: biochemical
# Conditions: membranes of cells stably expressing the S1P1 receptor, agonist potency
# Protocol: Compounds were synthesized and tested for S1P1 activity using the GTP γ^35S binding assay. These compounds may be assessed for their ability to activate or block activation of the human S1P1 receptor in cells stably expressing the S1P1 receptor.
# GTP γ^35S binding was measured in the medium containing (mM) HEPES 25, pH 7.4, MgCl2 10, NaCl 100, dithiothreitol 0.5, digitonin 0.003%, 0.2 nM GTP γ^35S, and 5 μg membrane protein in a volume of 150 μl. Test compounds were included in the concentration range from 0.08 to 5,000 nM unless indicated otherwise. Membranes were incubated with 100 μM 5′-adenylylimidodiphosphate for 30 min, and subsequently with 10 μM GDP for 10 min on ice. Drug solutions and membrane were mixed, and then reactions were initiated by adding GTP γ^35S and continued for 30 min at 25° C. Reaction mixtures were filtered over Whatman GF/B filters under vacuum, and washed three times with 3 mL of ice-cold buffer (HEPES 25, pH7.4, MgCl2 10 and NaCl 100). Filters were dried and mixed with scintillant, and counted for ^35S activity using a β-counter. Agonist-induced GTP γ^35S binding was obtained by subtracting that in the absence of agonist. Binding data were analyzed using a non-linear regression method. In case of antagonist assay, the reaction mixture contained 10 nM […] in the presence of test antagonist at concentrations ranging from 0.08 to 5000 nM.
# T1 sequence (P21453 whole entry): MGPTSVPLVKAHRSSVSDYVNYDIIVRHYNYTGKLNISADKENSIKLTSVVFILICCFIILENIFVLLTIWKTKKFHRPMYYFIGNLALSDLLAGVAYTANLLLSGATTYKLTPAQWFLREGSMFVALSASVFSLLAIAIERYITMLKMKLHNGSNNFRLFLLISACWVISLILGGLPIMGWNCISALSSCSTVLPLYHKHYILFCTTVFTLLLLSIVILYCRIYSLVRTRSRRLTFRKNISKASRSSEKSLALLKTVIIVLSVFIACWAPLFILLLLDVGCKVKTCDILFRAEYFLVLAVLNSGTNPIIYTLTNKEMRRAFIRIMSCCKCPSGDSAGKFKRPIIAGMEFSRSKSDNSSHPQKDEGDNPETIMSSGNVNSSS
row,SMILES,EC50 [nM]
1,"O=C(O)C1CN(CCCCCCCCC(Cc2ccccc2)c2cccc(Cl)c2)C1 (stereo not shown) [Compound 1, 1-[9-(3-Chlorophenyl)-10-phenyldecyl]azetidine-3-carboxylic acid]",129
2,"Cc1ccc(CC(CCCCCCCN2CC(C(=O)O)C2)c2cc(F)cc(F)c2)cc1C (stereo not shown) [Compound 2, 1-[8-(3,5-Difluorophenyl)-9-(3,4-dimethylphenyl)nonyl]azetidine-3-carboxylic acid]",61.4
3,"Cc1ccc(CC(CCCCCCN2CC(C(=O)O)C2)c2cccc(Cl)c2)cc1C (stereo not shown) [Compound 3, 1-[7-(3-Chlorophenyl)-8-(3,4-dimethylphenyl)octyl]azetidine-3-carboxylic acid]",801
4,"Cc1ccc(CC(CCCCCCCN2CC(C(=O)O)C2)c2cccc(Cl)c2)cc1C (stereo not shown) [Compound 4, 1-[8-(3-Chlorophenyl)-9-(3,4-dimethylphenyl)nonyl]azetidine-3-carboxylic acid]",644
